# Results as given in ChEMBL document CHEMBL3045628, “Quantitative structureactivity relationships studies for prediction of antimicrobial activity of synthesized disulfonamide derivatives” (2011).
# Key:
# Format in all cases: functional
# [1] = system: Staphylococcus aureus; experiment: Antimicrobial activity against Staphylococcus aureus ATCC 25923 after 24 hr by broth microdilution assay
# [2] = system: Bacillus cereus; experiment: Antimicrobial activity against Bacillus cereus RSKK 863 after 24 hr by broth microdilution assay
# [3] = system: Escherichia coli; experiment: Antimicrobial activity against Escherichia coli ATCC 11230 after 24 hr by broth microdilution assay
SMILES,-logMIC [1],-logMIC [2],-logMIC [3]
CCS(=O)(=O)NCCCCNS(=O)(=O)CC,2.637,2.638,2.69
CCCCS(=O)(=O)NCCCNS(=O)(=O)CCCC,2.861,2.917,3.116
O=S(=O)(NCCCCNS(=O)(=O)c1ccccc1)c1ccccc1,3.24,3.358,3.48
Cc1ccccc1S(=O)(=O)NCCNS(=O)(=O)c1ccccc1C,3.638,3.56,3.7
Cc1cccc(S(=O)(=O)NCCNS(=O)(=O)c2cccc(C)c2)c1,3.522,3.48,3.58
CS(=O)(=O)NCCCCCNS(C)(=O)=O,2.88,2.828,2.94
Cc1ccccc1S(=O)(=O)NCCCCNS(=O)(=O)c1ccccc1C,3.54,3.505,3.64
CCS(=O)(=O)NCCCNS(=O)(=O)CC,2.642,2.642,2.7
Cc1cccc(S(=O)(=O)NCCCNS(=O)(=O)c2cccc(C)c2)c1,3.48,3.44,3.57
COc1ccc(S(=O)(=O)NCCNS(=O)(=O)c2ccc(OC)cc2)cc1,3.49,3.46,3.56
CCCCS(=O)(=O)NCCCCNS(=O)(=O)CCCC,2.829,2.85,2.857
Cc1ccc(S(=O)(=O)NCCNS(=O)(=O)c2ccc(C)cc2)cc1,3.4,3.4,3.53
CCCS(=O)(=O)NCCCCNS(=O)(=O)CCC,2.933,2.95,3.119
Cc1ccccc1S(=O)(=O)NCCCNS(=O)(=O)c1ccccc1C,3.6,3.542,3.68
Cc1cccc(S(=O)(=O)NCCCCNS(=O)(=O)c2cccc(C)c2)c1,3.47,3.41,3.55
CCS(=O)(=O)NCCNS(=O)(=O)CC,2.66,2.66,2.72
CS(=O)(=O)NCCCCNS(C)(=O)=O,2.9,2.84,2.95

SMILES,-logMIC [1],-logMIC [2],-logMIC [3]
O=S(=O)(NCCCCCNS(=O)(=O)c1ccccc1)c1ccccc1,3.38,3.2,3.496
CCS(=O)(=O)NCCCCCNS(=O)(=O)CC,2.61,2.58,2.67
O=S(=O)(NCCCNS(=O)(=O)c1ccccc1)c1ccccc1,3.285,3.36,3.49
CS(=O)(=O)NCCNS(C)(=O)=O,2.99,2.876,2.99
Cc1ccc(S(=O)(=O)NCCCCNS(=O)(=O)c2ccc(C)cc2)cc1,3.26,3.35,3.5
CCCCS(=O)(=O)NCCNS(=O)(=O)CCCC,2.974,2.83,3.12
COc1ccc(S(=O)(=O)NCCCNS(=O)(=O)c2ccc(OC)cc2)cc1,3.46,3.42,3.511
CCCS(=O)(=O)NCCCCCNS(=O)(=O)CCC,2.96,2.78,3.191
COc1ccccc1S(=O)(=O)NCCNS(=O)(=O)c1ccccc1OC,3.58,3.66,3.72
COc1cccc(S(=O)(=O)NCCCNS(=O)(=O)c2cccc(OC)c2)c1,3.5,3.55,3.59
CCCS(=O)(=O)NCCCNS(=O)(=O)CCC,3.009,3.058,3.104
O=S(=O)(NCCNS(=O)(=O)c1ccccc1)c1ccccc1,3.38,3.37,3.51
COc1ccccc1S(=O)(=O)NCCCNS(=O)(=O)c1ccccc1OC,3.55,3.6,3.711
CCCS(=O)(=O)NCCNS(=O)(=O)CCC,3.003,3.179,3.258
Cc1ccc(S(=O)(=O)NCCCNS(=O)(=O)c2ccc(C)cc2)cc1,3.3,3.38,3.52
COc1cccc(S(=O)(=O)NCCNS(=O)(=O)c2cccc(OC)c2)c1,3.52,3.58,3.6
CS(=O)(=O)NCCCNS(C)(=O)=O,2.925,2.864,2.97
